Measurements taken from ChEMBL document CHEMBL4828727, “Antibacterial and antitumoral properties of 1,2,3-triazolo fused triterpenes and their mechanism of inhibiting the proliferation of HL-60 cells” (Eur J Med Chem, 2021).
Values after ≈ are worked out from the molar mass of the structure shown. Active and inactive are the calls of the source. The rule behind the calls is not given here.

Key:
CAPAN-1 = assay: cells; assay type: functional, cell-based; conditions: Homo sapiens, CAPAN-1, 72 h
Description: Antiproliferative activity against human CAPAN-1 cells assessed as inhibition of cell viability measured after 72 hrs by colorimetric MTS viability assay

[1] = Antiproliferative activity against human HAP1 cells assessed as inhibition of cell viability measured after 72 hrs by colorimetric MTS viability assay; assay type: functional, cell-based; conditions: HAP1, 72 h
LN-229 = assay: Antiproliferative activity against human LN-229 cells assessed as inhibition of cell viability measured after 72 hrs by colorimetric MTS viability assay; assay type: functional, cell-based; conditions: LN-229, 72 h
HCT-116 = assay: Antiproliferative activity against human HCT-116 cells assessed as inhibition of cell viability measured after 72 hrs by colorimetric MTS viability assay; assay type: functional, cell-based; conditions: HCT-116, 72 h
NCI-H460 = assay: cells; assay type: functional, cell-based; conditions: Homo sapiens, NCI-H460, 72 h
Description: Antiproliferative activity against human NCI-H460 cells assessed as inhibition of cell viability measured after 72 hrs by colorimetric MTS viability assay

[2] = Antiproliferative activity against human DND41 cells assessed as inhibition of cell viability measured after 72 hrs by real-time IncuCyte proliferation analysis; assay type: functional, cell-based; conditions: DND41, 72 h
HL-60 = assay: cells; assay type: functional, cell-based; conditions: Homo sapiens, HL-60, 72 h
Description: Antiproliferative activity against human HL-60 cells assessed as inhibition of cell viability measured after 72 hrs by real-time IncuCyte proliferation analysis

K562 = assay: cells; assay type: functional, cell-based; conditions: Homo sapiens, K562, 72 h
Description: Antiproliferative activity against human K562 cells assessed as inhibition of cell viability measured after 72 hrs by real-time IncuCyte proliferation analysis

Z-138 = assay: cells; assay type: functional, cell-based; conditions: Homo sapiens, Z-138, 72 h
Description: Antiproliferative activity against human Z138 cells assessed as inhibition of cell viability measured after 72 hrs by real-time IncuCyte proliferation analysis

Jurkat = assay: cells; assay type: functional, cell-based; conditions: Homo sapiens, 72 h
Description: Cytotoxicity against human Jurkat cells assessed as inhibition of cell viability measured after 72 hrs by real-time IncuCyte proliferation analysis

MV4-11 = assay: cells; assay type: functional, cell-based; conditions: Homo sapiens, MV4-11, 72 h
Description: Cytotoxicity against human MV4-11cells assessed as inhibition of cell viability measured after 72 hrs by real-time IncuCyte proliferation analysis

Rec1 = assay: cells; assay type: functional, cell-based; conditions: Homo sapiens, Rec1, 72 h
Description: Cytotoxicity against human REC1 cells assessed as inhibition of cell viability measured after 72 hrs by real-time IncuCyte proliferation analysis

Staphylococcus aureus = assay: Antibacterial activity against Staphylococcus aureus ATCC65385 assessed as growth inhibition after 20 hrs by broth microdilution method; assay type: functional
Escherichia coli = assay: Antibacterial activity against Escherichia coli ATCC47076 assessed as growth inhibition after 20 hrs by broth microdilution method; assay type: functional
[3] = tested on: Salmonella enterica subsp. enterica; assay: Antibacterial activity against Salmonella enterica subsp.enterica ATCC13076 assessed as growth inhibition after 20 hrs by broth microdilution method; assay type: functional
Listeria innocua = assay: Antibacterial activity against Listeria innocua LMG11387 assessed as growth inhibition after 20 hrs by broth microdilution method; assay type: functional

With `C[C@H]1[C@H](C)CC[C@]2(C(=O)O)CC[C@]3(C)C(=CC[C@@H]4[C@@]5(C)Cc6nnn(Cc7ccc8[nH]ccc8c7)c6C(C)(C)[C@@H]5CC[C@]43C)[C@H]12` the IC50 (CAPAN-1) was 4.5 µM, the IC50 [1] was 4.3 µM and the IC50 (LN-229) was 33.1 µM. It also gave an IC50 (HCT-116) of 11.5 µM, an IC50 (NCI-H460) of 8.6 µM and an IC50 [2] of 11.5 µM. The IC50 (HL-60) was 1.5 µM, the IC50 (K562) was 49.3 µM and the IC50 (Z-138) was 9.4 µM. It also gave an IC50 (Jurkat) of 3.2 µM, an IC50 (MV4-11) of 12.9 µM and an IC50 (Rec1) of 1.7 µM. For the same compound, the MIC50 (Staphylococcus aureus) was 37 µg/mL (≈ 60.7 µM), the MIC50 (Escherichia coli) was “inactive” and the MIC50 [3] was “inactive”. It also gave an MIC50 (Listeria innocua) of 153 µg/mL (≈ 252 µM).
`C[C@H]1[C@H](C)CC[C@]2(C(=O)O)CC[C@]3(C)C(=CC[C@@H]4[C@@]5(C)Cc6nnn(CCc7c[nH]c8ccccc78)c6C(C)(C)[C@@H]5CC[C@]43C)[C@H]12` showed an IC50 (CAPAN-1) of 4.6 µM, an IC50 [1] of 6.3 µM and an IC50 (LN-229) of 35.1 µM. For the same compound, the IC50 (HCT-116) was 10.8 µM, the IC50 (NCI-H460) was 8.8 µM and the IC50 [2] was 9 µM. For the same compound, the IC50 (HL-60) was 5.5 µM, the IC50 (K562) was 65.9 µM and the IC50 (Z-138) was 12.2 µM. It also gave an IC50 (Jurkat) of 3.8 µM, an IC50 (MV4-11) of 9.9 µM and an IC50 (Rec1) of 2.5 µM. The MIC50 (Staphylococcus aureus) was 132 µg/mL (≈ 212 µM), the MIC50 (Escherichia coli) was “inactive” and the MIC50 [3] was “inactive”. The MIC50 (Listeria innocua) was 118 µg/mL (≈ 189 µM).
In the case of `CC1(C)CC[C@]2(C(=O)O)CC[C@]3(C)C(=CC[C@@H]4[C@@]5(C)Cc6nnn(CCc7c[nH]c8ccccc78)c6C(C)(C)[C@@H]5CC[C@]43C)[C@@H]2C1`, the IC50 (CAPAN-1) is reported as 9.6 µM, the IC50 [1] is reported as > 7.9 µM and the IC50 (LN-229) is reported as 55.1 µM. For the same compound, the IC50 (HCT-116) was 11.1 µM, the IC50 (NCI-H460) was 7.6 µM and the IC50 [2] was 9.9 µM. It also gave an IC50 (HL-60) of 1.5 µM, an IC50 (K562) of 52.1 µM and an IC50 (Z-138) of 11.6 µM. It also gave an IC50 (Jurkat) of 4.1 µM, an IC50 (MV4-11) of 15.8 µM and an IC50 (Rec1) of 2.1 µM. For the same compound, the MIC50 (Staphylococcus aureus) was 274 µg/mL (≈ 439 µM), the MIC50 (Escherichia coli) was 387 µg/mL (≈ 622 µM) and the MIC50 [3] was “inactive”. For the same compound, the MIC50 (Listeria innocua) was 255 µg/mL (≈ 409 µM).
For `C[C@H]1[C@H](C)CC[C@]2(C(=O)O)CC[C@]3(C)C(=CC[C@@H]4[C@@]5(C)Cc6nnn(Cc7cccc8[nH]ccc78)c6C(C)(C)[C@@H]5CC[C@]43C)[C@H]12`, the IC50 (CAPAN-1) was 3.6 µM, the IC50 [1] was 8.8 µM and the IC50 (LN-229) was 63.5 µM. It also gave an IC50 (HCT-116) of 15.6 µM, an IC50 (NCI-H460) of 9.2 µM and an IC50 [2] of 10.1 µM. The IC50 (HL-60) was 2.7 µM, the IC50 (K562) was > 100 µM and the IC50 (Z-138) was 10.1 µM. The IC50 (Jurkat) was 4.1 µM, the IC50 (MV4-11) was 14.1 µM and the IC50 (Rec1) was 2.8 µM. For the same compound, the MIC50 (Staphylococcus aureus) was 23.1 µg/mL (≈ 38 µM), the MIC50 (Escherichia coli) was 409 µg/mL (≈ 672 µM) and the MIC50 [3] was “inactive”. The MIC50 (Listeria innocua) was 51.3 µg/mL (≈ 84.2 µM).
